From patent publication US20060115426A1, “Methods of detecting breast cancer, brain cancer, and pancreatic cancer” (priority 2004, published 2006)
Entries after “also recorded” stand apart in the source; their conditions may differ.

Tests used:
[1] = system: spontaneous mammary carcinomas; assay: Bioscan imaging of 125I-NM404 in Apc Min/+ endogenous mammary adenocarcinoma model; format: in vivo, mouse
Source text: Apc^Min/+ Mouse Model: This model is comprised of mice carrying the Min allele of Apc (Apc^Min/+ mice) and the type of lesions that appear in these mice are molecularly and histologically similar to breast cancer in humans. This model offers specific advantages over xenograft models in that female Apc^Min/+ mice are predisposed to developing mammary hyperplasias and carcinomas and intestinal adenomas. On the C57BL6/J genetic background, about 5% of untreated females will develop a mammary tumor by 100 days of age (Moser A R, et al. Proc. Natl. Acad. Sci. USA 90:8977-81, 1993). The incidence and multiplicity of the mammary lesions can be increased by a single dose of ethylnitrosourea (ENU), a direct acting alkylating agent. Treatment with ENU results in 90% of B6 Apc^Min/+ females developing an average of 3 mammary squamous cell carcinomas (SCC), but few hyperplasic lesions within 60 days after treatment.
Genetic background can affect the incidence, latency, and type of mammary lesions that develop. For example, FVBxB6 Apc^Min/+ female mice develop an average of 0.2 mammary tumors per mouse, but 4 hyperplasias per mouse within 120 days of treatment. BALB/xB6 Apc^Min/+ develop an average of 1.8 mammary tumors and 0.6 hyperplasias per mouse (Moser A R, et al. Cancer Research 61:3480-3485, 2001). FVBxB6 and BALBxB6 Apc^Min/+ mice develop both mammary SCC and adenocarcinomas (AC).
Imaging Studies: NM404 (100 μg) was radioiodinated with ^125I via isotope exchange in a melt of privalic acid. Following HPLC purification it was dissolved in an aqueous 2% tween-20 solution prior to tail vein injection (15 μCi/20 g mouse) into 6 female Apc^Min/+ mice. Mice were anesthetized and scanned for up to 30 days post injection on a modified Bioscan AR2000 radio-TLC scanner (1 mm increments at 2 mm acquisition/lane and 1 mm high-resolution collimator) and also in an ImTek microCT scanner (390 steps) for anatomic comparison. […] At sacrifice, mammary glands or excised tumors were imaged ex vivo, lesions were excised, weighed, and radioactivity quantitated. Lesion samples were submitted for histological classification. If necessary a long-acting CT blood pool contrast agent (BP20), as described in Weichert J P, et al. Radiology 216:865-871, 2000 and suitable for long microCT acquisitions times, was injected intravenously prior to CT scanning in order to assist in blood vessel visualization (FIG. 3).

C6 gliomas [2] = assay: Bioscan imaging of excised brains of C6 glioma-bearing and sham-operated rats; format: in vivo, rat
Experimental: (§1) Glioma tumor model: All animals were housed and handled in accordance with the University of Wisconsin Research Animal Resources Center guidelines. Rat C6 glioma cells were propagated in DMEM medium (Life Technologies, Gaithersburg, Md.) supplemented with 10% heat-inactivated FBS (BioWhittaker, Walkersville, MD), 100 U/ml penicillin-G, 100 μg/ml streptomycin, and 0.01 M hepes (Life Technologies, Gaithersburg, Md.). Intracranial tumor implantation was performed as described in Badie B, et al. J. Neuroimmunol. 133:39-45, 2002. Briefly, 1×10^6 C6 cells were resuspended in 5 μl of 1.2% methylcellulose and injected into the frontal lobes of anesthetized female Wistar rats (Harlan, Indianapolis, Ind.). Sham-operated animals received intracranial injections of an equal volume of methylcellulose without tumor cells.
Imaging studies: Ten days after implantation rats were screened for the presence of intracranial tumors with MRI as described in Badie B, et al. Clin. Cancer Res. 9:872-877, 2003. […]
NM404 (100 μg) was radioiodinated with ^125I via isotope exchange in a melt of pivalic acid (Weichert J P, et al. Int J Appl Rad Isotopes 37:907-913,1986). […] Co-registered Bioscan images and digital photographs were fused (Corel Photo-Paint) in order to accurately determine the location of radioactivity. […]

C6 gliomas [3] = assay: Biodistribution (tissue distribution) of 125I-NM404 in glioma-bearing rats; format: in vivo, rat; settings: for Tumor/brain ratio: based on % injected dose/g; for tissue distribution, Thyroid: indicator of in vivo deiodination
Experimental: as §1
Biodistribution studies: Rats bearing C6 gliomas (n=4, 10 day old tumors), and sham-operated rats (n=3) were injected with ^125I-NM404 (15 μCi/200 g rat) and biodistribution studies performed as described in Rampy M A, et al. J. Med. Chem. 38:3156-3162, 1995. Accordingly, animals were euthanized by exsanguination at 24, 48, and 96 hours following injection. A total of 17 tissues including blood, plasma, adrenal glands, bladder wall, bone marrow, brain, eye lens, fat, heart, kidney, liver, lung, muscle, spleen, skin, thyroid, and tumor were excised, rinsed, and dissected free of extraneous tissue. Tissues were minced and duplicate samples weighed and placed in plastic tubes for isotope counting in a gamma counter (Perkin Elmer/Wallac Wizard-1470). Injection site and residual carcass radioactivity were determined in a well counter (Capintec CRC-15R). Time normalized tissue distribution tables were generated by a custom computer program which produces decay-corrected tissue radioactivity concentration data on a percent injected dose/g, […], and percent injected dose/organ±SEM basis.

[4] = system: pancreatic adenocarcinomas; assay: Bioscan imaging of 125I-NM404 in c-myc spontaneous pancreatic adenocarcinoma model; format: in vivo, mouse; settings: c-myc transgenic mice, adenocarcinomas 5-12 mm in diameter
Source text: Mouse Pancreatic Adenocarcinoma Models: Two murine strains that are transgenic for either c-myc or k-ras, well-known oncogenes, have been developed at the University of Wisconsin (Sandgren E P, et al. Proc. Natl. Acad. Sci. USA 88:93-97, 1991 and Grippo P J, et al. Cancer Research 63:2016-2019, 2003). Expression of c-myc is targeted to pancreatic acinar cells because it is linked to an elastase promoter, which is only expressed in the pancreas. These ela-1-myc transgenic mice develop acinar and ductal neoplasia, which results in death between 2 and 7 months of age. By one month of age, the pancreas appears thickened and firm. Thus mice between the ages of 1-3 months serve as excellent models for the study of pancreatic cancer. Most human pancreatic neoplasms have a ductal morphology, and Dr. Sandgren's transgene targeting strategies are aimed at developing tumors that are specific for pancreatic ductal epithelium.
Imaging Studies: In order to determine if NM404 localizes in mouse pancreatic tumors, six c-myc transgenic mice were scanned on a Bioscan AR-2000 radioTLC scanner (modified by inventors for mouse imaging) from 2-21 days after tail vein injection of ^[…] (15 μCi/20 g body weight). […] At sacrifice, tissues were excised, weighed, and radioactivity quantitated in a gamma counter.

viable tumor cells = assay: Autoradiography experiments in other tumor models; format: in vivo; settings: versus normal or necrotic tissues
[5] = system: CNS-1 brain tumor xenografts; assay: MicroPET evaluation of 124I-NM404 in rat CNS-1 brain tumor model; format: in vivo; settings: CNS-1 rats
Experimental: NM404 was radiolabeled with ^124I in excellent radiochemical yield (>60% isolated yield, >99% purity) via isotope exchange reaction of stable NM404 with sodium-iodide (Eastern Isotopes, Sterling Va.). Following preparative HPLC purification ^124I-NM404 was solubilized in 2% Tween-20 and filtered (0.22 micron). NM404 (130-200 μCi in 0.1 ml) was injected (i.v., tail vein) into 6 rats with CNS-1 brain tumor xenografts. MicroPET images (Concorde Microsystems-P4, 30 min acquisition) were acquired immediately after and at 6 h, 24 h, and 96 h post injection. Contrast-enhanced MRI images were obtained immediately following the final PET scan and PET/MRI images were manually fused using Amira (V3.1, TGS, Inc). Rats were euthanized and brain tissue subjected to histopathologic analysis.

[6] = Apc Min/+ mice, Bioscan imaging

## C[N+](C)(C)CCOP(=O)([O-])OCCCCCCCCCCCCCCCCCCc1ccc(I)cc1 [NM404, 18-(p-iodophenyl)-octadecylphosphocholine]
[1]; Apc Min/+ mice after i.v. 125I-NM404
  HPLC analysis of radioactive urine and feces: presence of metabolites and no parent NM404
[1]; [6]
  localization in focal alveolar (mammary) hyperplasias: no corresponding focal activity; also recorded: did not localize
  localization in intestinal adenomatous polyps: no uptake; also recorded: did not localize
[1]; Apc Min/+ mice, i.v. 125I-NM404 15 μCi/20 g, carcinomas 2-15 mm in diameter
  uptake in spontaneous mammary carcinomas: > 20 % dose/g
[1]; Apc Min/+ mice, mammary carcinomas, 21 days = predetermined study endpoint
  tumor retention: > 21 days
C6 gliomas [2]; C6 glioma-bearing rats, 24-96 h after i.v. 125I-NM404 15 μCi/200 g
  tracer uptake in C6 gliomas on Bioscan images: intense localization; also recorded: concentrated intensely
C6 gliomas [2]; sham operated control rats
  radioactivity in normal brain tissue: minimal
C6 gliomas [3]; 24 h
  Tumor/brain ratio: 10.6
C6 gliomas [3]; 48 h, N = 1
  tissue distribution, Thyroid: 2.3 % injected dose/g tissue
C6 gliomas [3]; 48 h
  Tumor/brain ratio: 12.0
C6 gliomas [3]; 96 h, N = 2, ± SEM
  tissue distribution, Thyroid: 9.0 % injected dose/g tissue
C6 gliomas [3]; 96 h
  Tumor/brain ratio: 7.8
[4]
  retention in pancreatic adenocarcinomas: > 21 days
[4]; i.v. 15 μCi/20 g
  uptake in pancreatic adenocarcinomas: striking uptake
Viable tumor cells
  cells/tissues capable of accumulating NM404 (autoradiography): only viable tumor cells

## C[N+](C)(C)CCOP(=O)([O-])OCCCCCCCCCCCCCCCCCCc1ccc([124I])cc1 [^124 I-NM404]
[5]; 6 hours following injection
  tumor uptake (microPET): respectable tumor uptake
[5]; any time point
  concomitant normal brain tissue activity (microPET): Little to no
[5]; at either 24 or 96 hours
  tumor conspicuity (microPET): significant
[5]; within 30 minutes of i.v. injection
  tumor uptake (microPET): no tumor uptake

## C[N+](C)(C)CCOP(=O)([O-])OCCCCCCCCCCCCCCCCCCc1ccc([125I])cc1 [^125I-NM404]
C6 gliomas [3]; 24 h, N = 1
  tissue distribution, Blood: 1.83 % injected dose/g tissue
  tissue distribution, Brain: 0.07 % injected dose/g tissue
  tissue distribution, Glioma: 0.74 % injected dose/g tissue
  tissue distribution, Kidney: 0.91 % injected dose/g tissue
  tissue distribution, Liver: 0.77 % injected dose/g tissue
  tissue distribution, Spleen: 0.80 % injected dose/g tissue
C6 gliomas [3]; 24 h
  Tumor/brain ratio: 10.6
C6 gliomas [3]; 48 h, N = 1
  tissue distribution, Blood: 1.16 % injected dose/g tissue
  tissue distribution, Brain: 0.05 % injected dose/g tissue
  tissue distribution, Glioma: 0.60 % injected dose/g tissue
  tissue distribution, Kidney: 0.44 % injected dose/g tissue
  tissue distribution, Liver: 0.30 % injected dose/g tissue
  tissue distribution, Spleen: 0.33 % injected dose/g tissue
  tissue distribution, Thyroid: 2.34 % injected dose/g tissue
C6 gliomas [3]; 48 h
  Tumor/brain ratio: 12.0
C6 gliomas [3]; 96 h, N = 2, ± SEM
  tissue distribution, Blood: 0.82 ± 0.01 % injected dose/g tissue
  tissue distribution, Brain: 0.09 ± 0.02 % injected dose/g tissue
  tissue distribution, Glioma: 0.70 ± 0.04 % injected dose/g tissue
  tissue distribution, Kidney: 0.45 ± 0.05 % injected dose/g tissue
  tissue distribution, Liver: 0.39 ± 0.01 % injected dose/g tissue
  tissue distribution, Spleen: 0.33 ± 0.03 % injected dose/g tissue
  tissue distribution, Thyroid: 9.06 ± 3.84 % injected dose/g tissue
C6 gliomas [3]; 96 h
  Tumor/brain ratio: 7.8
